Entries after “also recorded” stand apart in the source; their conditions may differ. Read-outs that look alike come from different tables or passages of the source.
Tests used:
2D rat cortical cultures = conditions: cited from earlier work; for AC50: rNFA mc5; for hitc CCTE_Shafer_MEA_dev_active_electrodes_number / hitc CCTE_Shafer_MEA_dev_burst_duration_mean / hitc CCTE_Shafer_MEA_dev_burst_rate / hitc CCTE_Shafer_MEA_dev_bursting_electrodes_number / hitc CCTE_Shafer_MEA_dev_correlation_coefficient_mean / hitc CCTE_Shafer_MEA_dev_firing_rate_mean / hitc CCTE_Shafer_MEA_dev_inter_network_spike_interval_mean / hitc CCTE_Shafer_MEA_dev_interburst_interval_mean / hitc CCTE_Shafer_MEA_dev_mutual_information_norm / hitc CCTE_Shafer_MEA_dev_network_spike_duration_std / hitc CCTE_Shafer_MEA_dev_network_spike_number / hitc CCTE_Shafer_MEA_dev_network_spike_peak / hitc CCTE_Shafer_MEA_dev_per_burst_interspike_interval / hitc CCTE_Shafer_MEA_dev_per_burst_spike_percent / hitc CCTE_Shafer_MEA_dev_per_network_spike_spike_number_mean / hitc CCTE_Shafer_MEA_dev_per_network_spike_spike_percent / hitc CCTE_Shafer_MEA_dev_spike_duration_mean: rNFA mc5 hit call; for hitc CCTE_Shafer_MEA_dev_burst_duration_mean: aenm burst_duration_mean; for hitc CCTE_Shafer_MEA_dev_burst_rate: aenm burst_rate; for hitc CCTE_Shafer_MEA_dev_correlation_coefficient_mean: aenm correlation_coefficient_mean; for hitc CCTE_Shafer_MEA_dev_firing_rate_mean: aenm firing_rate_mean; for hitc CCTE_Shafer_MEA_dev_inter_network_spike_interval_mean: aenm inter_network_spike_interval_mean; for hitc CCTE_Shafer_MEA_dev_interburst_interval_mean: aenm interburst_interval_mean; for hitc CCTE_Shafer_MEA_dev_mutual_information_norm: aenm mutual_information_norm; for hitc CCTE_Shafer_MEA_dev_network_spike_duration_std: aenm network_spike_duration_std; for hitc CCTE_Shafer_MEA_dev_network_spike_number: aenm network_spike_number; for hitc CCTE_Shafer_MEA_dev_network_spike_peak: aenm network_spike_peak; for hitc CCTE_Shafer_MEA_dev_per_burst_interspike_interval: aenm per_burst_interspike_interval; for hitc CCTE_Shafer_MEA_dev_per_burst_spike_percent: aenm per_burst_spike_percent; for hitc CCTE_Shafer_MEA_dev_per_network_spike_spike_number_mean: aenm per_network_spike_spike_number_mean; for hitc CCTE_Shafer_MEA_dev_per_network_spike_spike_percent: aenm per_network_spike_spike_percent; for hitc CCTE_Shafer_MEA_dev_spike_duration_mean: aenm spike_duration_mean; for hitc CCTE Shafer MEA dev active electrodes number: key: 1 (active); 0 (inactive); for hitc CCTE Shafer MEA dev burst duration mean: key: 1 (active); 0 (inactive); for hitc CCTE Shafer MEA dev burst rate: key: 1 (active); 0 (inactive); for hitc CCTE Shafer MEA dev bursting electrodes number: key: 1 (active); 0 (inactive); for hitc CCTE Shafer MEA dev correlation coefficient mean: key: 1 (active); 0 (inactive); for hitc CCTE Shafer MEA dev firing rate mean: key: 1 (active); 0 (inactive); for hitc CCTE Shafer MEA dev inter network spike interval mean: key: 1 (active); 0 (inactive); for hitc CCTE Shafer MEA dev interburst interval mean: key: 1 (active); 0 (inactive); for hitc CCTE Shafer MEA dev mutual information norm: key: 1 (active); 0 (inactive); for hitc CCTE Shafer MEA dev network spike duration std: key: 1 (active); 0 (inactive); for hitc CCTE Shafer MEA dev network spike number: key: 1 (active); 0 (inactive); for hitc CCTE Shafer MEA dev network spike peak: key: 1 (active); 0 (inactive); for hitc CCTE Shafer MEA dev per burst interspike interval: key: 1 (active); 0 (inactive); for hitc CCTE Shafer MEA dev per burst spike percent: key: 1 (active); 0 (inactive); for hitc CCTE Shafer MEA dev per network spike spike number mean: key: 1 (active); 0 (inactive); for hitc CCTE Shafer MEA dev per network spike spike percent: key: 1 (active); 0 (inactive); for hitc CCTE Shafer MEA dev spike duration mean: key: 1 (active); 0 (inactive)
[1] = tested on: human iPSC-derived 3D BrainSpheres; assay: BrainSphere MEA assay (HD-MEA, 13-day exposure, concentration-response); assay type: cell-based; conditions: for EC (benchmark response 1.349 SD): 312 h; for hitc Mean.Spheroid.Burst.Duration: key: 1 (active); 0 (inactive); for hitc Mean.Spheroid.Burst.ISI: key: 1 (active); 0 (inactive); for hitc Mean.Spheroid.Burst.Peak.Firing.Rate: key: 1 (active); 0 (inactive); for hitc Mean.Spheroid.Firing.Rate: key: 1 (active); 0 (inactive); for hitc Mean.Spheroid.IBI: key: 1 (active); 0 (inactive); for hitc Mean.Spheroid.Nonburst.ISI: key: 1 (active); 0 (inactive); for hitc Mean.Spheroid.Spikes.per.Burst.per.Electrode: key: 1 (active); 0 (inactive); for hitc Mean.Spheroid.Spikes.per.Burst: key: 1 (active); 0 (inactive); for hitc Spheroid.Burst.Frequency: key: 1 (active); 0 (inactive); for hitc Spheroid.Spike.Amplitude.90th.Percentile: key: 1 (active); 0 (inactive)
How it was run: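 Recordings used a 5× RMS spike threshold and 600 s network scans of fixed electrode regions, each region clustered as one BrainSphere. Spheres had 7 weeks of differentiation and 48 h attachment on coated HD-MEA chips before day 0 of the 13-day concentration-response exposure. At least three independent plates were run.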

[2] = aenm bursting_electrodes_number
[3] = AUC over 13-day exposure, tcplfit2
[4] = tcplfit2 BMD at benchmark response (1.349*SD of baseline controls)
[5] = tcplfit2 output ACC, activity cutoff in Supplemental Table 1

CC(C)(c1ccc(O)cc1)c1ccc(O)cc1 [Bisphenol A]
Number of active endpoints in the rNFA (2D rat cortical cultures; of 17 MEA endpoints, ref Brown et al. [2016], Carstens et al. [2022], Frank et al. [2017b], Shafer et al. [2019], ToxCast invitrodb (v4.2)): two
AC50 (2D rat cortical cultures; aenm active_electrodes_number, read-out: ac50 CCTE_Shafer_MEA_dev_active_electrodes_number): 15 µM
AC50 (2D rat cortical cultures; aenm bursting_electrodes_number, read-out: ac50 CCTE_Shafer_MEA_dev_bursting_electrodes_number): 9.89 µM
hitc CCTE_Shafer_MEA_dev_active_electrodes_number (2D rat cortical cultures; aenm active_electrodes_number): 1
hitc CCTE_Shafer_MEA_dev_burst_duration_mean (2D rat cortical cultures): 0
hitc CCTE_Shafer_MEA_dev_burst_rate (2D rat cortical cultures): 0
hitc CCTE_Shafer_MEA_dev_bursting_electrodes_number (2D rat cortical cultures; [2]): 1
hitc CCTE_Shafer_MEA_dev_correlation_coefficient_mean (2D rat cortical cultures): 0
hitc CCTE_Shafer_MEA_dev_firing_rate_mean (2D rat cortical cultures): 0
hitc CCTE_Shafer_MEA_dev_inter_network_spike_interval_mean (2D rat cortical cultures): 0
hitc CCTE_Shafer_MEA_dev_interburst_interval_mean (2D rat cortical cultures): 0
hitc CCTE_Shafer_MEA_dev_mutual_information_norm (2D rat cortical cultures): 0
hitc CCTE_Shafer_MEA_dev_network_spike_duration_std (2D rat cortical cultures): 0
hitc CCTE_Shafer_MEA_dev_network_spike_number (2D rat cortical cultures): 0
hitc CCTE_Shafer_MEA_dev_network_spike_peak (2D rat cortical cultures): 0
hitc CCTE_Shafer_MEA_dev_per_burst_interspike_interval (2D rat cortical cultures): 0
hitc CCTE_Shafer_MEA_dev_per_burst_spike_percent (2D rat cortical cultures): 0
hitc CCTE_Shafer_MEA_dev_per_network_spike_spike_number_mean (2D rat cortical cultures): 0
hitc CCTE_Shafer_MEA_dev_per_network_spike_spike_percent (2D rat cortical cultures): 0
hitc CCTE_Shafer_MEA_dev_spike_duration_mean (2D rat cortical cultures): 0
Difference of minimum potency between BrainSphere MEA assay and rNFA ([1]; 5th percentile of AC50 values by chemical, above 0.5 = more potent in the rNFA): ≤ 0.5 log10 µM
hitc Mean.Spheroid.Burst.Duration [1, 3]: 1
hitc Mean.Spheroid.Burst.ISI [1, 3]: 1
hitc Mean.Spheroid.Burst.Peak.Firing.Rate [1, 3]: 1
hitc Mean.Spheroid.Firing.Rate [1, 3]: 1
hitc Mean.Spheroid.IBI [1, 3]: 1
hitc Mean.Spheroid.Nonburst.ISI [1, 3]: 0
hitc Mean.Spheroid.Spikes.per.Burst [1, 3]: 1
hitc Mean.Spheroid.Spikes.per.Burst.per.Electrode [1, 3]: 1
hitc Spheroid.Burst.Frequency [1, 3]: 1
hitc Spheroid.Spike.Amplitude.90th.Percentile [1, 3]: 1
EC50 ([1]; Homo sapiens, 5th percentile across active AC50 values per chemical, read-out: Minimum potency): 29.1 µM
EC (benchmark response 1.349 SD) ([1]; Homo sapiens, tcplfit2 BMD at benchmark response (1.349*SD of baseline controls), read-out: BMD Mean.Spheroid.Burst.ISI): 27 µM
EC (benchmark response 1.349 SD) ([1]; Homo sapiens, tcplfit2 BMD at benchmark response (1.349*SD of baseline controls), read-out: BMD Mean.Spheroid.Nonburst.ISI): 50 µM
AC50 ([1]; Homo sapiens, concentration at 50% maximal activity, Supplement 3 prints it also for curves with hit call 0, read-out: ac50 Mean.Spheroid.Burst.Duration): 29.4 µM
AC50 ([1]; Homo sapiens, concentration at 50% maximal activity, Supplement 3 prints it also for curves with hit call 0, read-out: ac50 Mean.Spheroid.Burst.ISI): 29.2 µM
AC50 ([1]; Homo sapiens, concentration at 50% maximal activity, Supplement 3 prints it also for curves with hit call 0, read-out: ac50 Mean.Spheroid.Burst.Peak.Firing.Rate): 30 µM
AC50 ([1]; Homo sapiens, concentration at 50% maximal activity, Supplement 3 prints it also for curves with hit call 0, read-out: ac50 Mean.Spheroid.Firing.Rate): 29 µM
AC50 ([1]; Homo sapiens, concentration at 50% maximal activity, Supplement 3 prints it also for curves with hit call 0, read-out: ac50 Mean.Spheroid.IBI): 45 µM
AC50 ([1]; Homo sapiens, concentration at 50% maximal activity, Supplement 3 prints it also for curves with hit call 0, read-out: ac50 Mean.Spheroid.Nonburst.ISI): 45 µM
AC50 ([1]; Homo sapiens, concentration at 50% maximal activity, Supplement 3 prints it also for curves with hit call 0, read-out: ac50 Mean.Spheroid.Spikes.per.Burst): 45 µM
AC50 ([1]; Homo sapiens, concentration at 50% maximal activity, Supplement 3 prints it also for curves with hit call 0, read-out: ac50 Mean.Spheroid.Spikes.per.Burst.per.Electrode): 29.1 µM
AC50 ([1]; Homo sapiens, concentration at 50% maximal activity, Supplement 3 prints it also for curves with hit call 0, read-out: ac50 Spheroid.Burst.Frequency): 45 µM
AC50 ([1]; Homo sapiens, concentration at 50% maximal activity, Supplement 3 prints it also for curves with hit call 0, read-out: ac50 Spheroid.Spike.Amplitude.90th.Percentile): 45 µM
EC50 ([1]; Homo sapiens, mean across active AC50 values per chemical, read-out: Mean potency): 36.3 µM
AC50 ([1]; concentration at 50% maximal activity, Supplement 3 prints it also for curves with hit call 0, read-out: ac50 Mean.Spheroid.Burst.Peak.Firing.Rate): 29.6 µM
AC50 ([1]; concentration at 50% maximal activity, Supplement 3 prints it also for curves with hit call 0, read-out: ac50 Mean.Spheroid.Firing.Rate): 29.3 µM
Percent active ([1]; metrics active out of the total number of metrics screened): 90%
BMD Mean.Spheroid.Burst.Duration [1, 4]: 28 µM
BMD Mean.Spheroid.Burst.Peak.Firing.Rate [1, 4]: 28 µM
BMD Mean.Spheroid.Firing.Rate [1, 4]: 30 µM
BMD Mean.Spheroid.IBI [1, 4]: 31 µM
BMD Mean.Spheroid.Spikes.per.Burst [1, 4]: 40 µM
BMD Mean.Spheroid.Spikes.per.Burst.per.Electrode [1, 4]: 28 µM
BMD Spheroid.Burst.Frequency [1, 4]: 47 µM
BMD Spheroid.Spike.Amplitude.90th.Percentile [1, 4]: 33 µM
ACC Mean.Spheroid.Burst.Duration [1, 5]: 27 µM
ACC Mean.Spheroid.Burst.ISI [1, 5]: 26 µM
ACC Mean.Spheroid.Burst.Peak.Firing.Rate [1, 5]: 28 µM
ACC Mean.Spheroid.Firing.Rate [1, 5]: 31 µM
ACC Mean.Spheroid.IBI [1, 5]: 44 µM
ACC Mean.Spheroid.Nonburst.ISI [1, 5]: 58 µM
ACC Mean.Spheroid.Spikes.per.Burst [1, 5]: 50 µM
ACC Mean.Spheroid.Spikes.per.Burst.per.Electrode [1, 5]: 29 µM
ACC Spheroid.Burst.Frequency [1, 5]: 42 µM
ACC Spheroid.Spike.Amplitude.90th.Percentile [1, 5]: 44 µM
Hits ([1]; total number of active endpoints out of 10 MEA activity metrics, 13-day exposure): 9

CC1(C)S[C@@H]2[C@H](NC(=O)[C@H](N)c3ccc(O)cc3)C(=O)N2[C@H]1C(=O)O [Amoxicillin]
hitc CCTE_Shafer_MEA_dev_active_electrodes_number (2D rat cortical cultures; aenm active_electrodes_number): 0
hitc CCTE_Shafer_MEA_dev_burst_duration_mean (2D rat cortical cultures): 0
hitc CCTE_Shafer_MEA_dev_burst_rate (2D rat cortical cultures): 0
hitc CCTE_Shafer_MEA_dev_bursting_electrodes_number (2D rat cortical cultures; [2]): 0
hitc CCTE_Shafer_MEA_dev_correlation_coefficient_mean (2D rat cortical cultures): 0
hitc CCTE_Shafer_MEA_dev_firing_rate_mean (2D rat cortical cultures): 0
hitc CCTE_Shafer_MEA_dev_inter_network_spike_interval_mean (2D rat cortical cultures): 0
hitc CCTE_Shafer_MEA_dev_interburst_interval_mean (2D rat cortical cultures): 0
hitc CCTE_Shafer_MEA_dev_mutual_information_norm (2D rat cortical cultures): 0
hitc CCTE_Shafer_MEA_dev_network_spike_duration_std (2D rat cortical cultures): 0
hitc CCTE_Shafer_MEA_dev_network_spike_number (2D rat cortical cultures): 0
hitc CCTE_Shafer_MEA_dev_network_spike_peak (2D rat cortical cultures): 0
hitc CCTE_Shafer_MEA_dev_per_burst_interspike_interval (2D rat cortical cultures): 0
hitc CCTE_Shafer_MEA_dev_per_burst_spike_percent (2D rat cortical cultures): 0
hitc CCTE_Shafer_MEA_dev_per_network_spike_spike_number_mean (2D rat cortical cultures): 0
hitc CCTE_Shafer_MEA_dev_per_network_spike_spike_percent (2D rat cortical cultures): 0
hitc CCTE_Shafer_MEA_dev_spike_duration_mean (2D rat cortical cultures): 0
Bioactivity in the rNFA (in words) (2D rat cortical cultures; ref Brown et al. [2016], Carstens et al. [2022], Frank et al. [2017b], Shafer et al. [2019], ToxCast invitrodb (v4.2)): negative in the rNFA; also recorded: inactive in the rNFA; also recorded: inactivity across all metrics in both models
BMD Spheroid.Burst.Frequency [1]: 448 µM
Bioactivity across the 10 MEA endpoints of the BrainSphere MEA assay (in words) [1]: inactive across all metrics; also recorded: inactivity across all metrics in both models
Hits [1]: 0
Percent active [1]: 0%
hitc Mean.Spheroid.Burst.Duration [1]: 0
hitc Mean.Spheroid.Burst.ISI [1]: 0
hitc Mean.Spheroid.Burst.Peak.Firing.Rate [1]: 0
hitc Mean.Spheroid.Firing.Rate [1]: 0
hitc Mean.Spheroid.IBI [1]: 0
hitc Mean.Spheroid.Nonburst.ISI [1]: 0
hitc Mean.Spheroid.Spikes.per.Burst [1]: 0
hitc Mean.Spheroid.Spikes.per.Burst.per.Electrode [1]: 0
hitc Spheroid.Burst.Frequency [1]: 0
hitc Spheroid.Spike.Amplitude.90th.Percentile [1]: 0
EC (benchmark response 1.349 SD) ([1]; Homo sapiens, read-out: BMD Mean.Spheroid.Burst.ISI): 1440 µM
EC (benchmark response 1.349 SD) ([1]; Homo sapiens, read-out: BMD Mean.Spheroid.Nonburst.ISI): 620 µM
AC50 ([1]; Homo sapiens, read-out: ac50 Mean.Spheroid.Burst.Duration): 0.22 µM
AC50 ([1]; Homo sapiens, read-out: ac50 Mean.Spheroid.Burst.ISI): 45 µM
AC50 ([1]; Homo sapiens, read-out: ac50 Mean.Spheroid.Burst.Peak.Firing.Rate): 0.029 µM
AC50 ([1]; Homo sapiens, read-out: ac50 Mean.Spheroid.IBI): 0.063 µM
AC50 ([1]; Homo sapiens, read-out: ac50 Mean.Spheroid.Spikes.per.Burst): 0.01 µM
AC50 ([1]; Homo sapiens, read-out: ac50 Mean.Spheroid.Spikes.per.Burst.per.Electrode): 0.036 µM
AC50 ([1]; Homo sapiens, read-out: ac50 Spheroid.Spike.Amplitude.90th.Percentile): 0.13 µM
